Assay results published in patent US20070179143A1 (priority 2003, published 2007).

Assays:
[1] = tested on: MCF7; assay: Cytotoxicity test to cancer cell lines (SRB method), MCF7; conditions: read-out: Cytotoxicity ED50 MCF-7, MCF-7, 48 hours
Experimental: (§4) Cytotoxicity to A549 (Korea Research Institute of Chemical Technology), SK-OV-3 (Korea Research Institute of Chemical Technology), SK-MEL-2 (Korea Research Institute of Chemical Technology), HCT-15 (Korea Research Institute of Chemical Technology) and MCF7 (Korean Cell Line Bank, Seoul National University School of medicine) cells was measured by Sulforhodamin-B (SRB) method (1989, National Cancer Institute (NCI)) which was developed for the measurement of in vitro anticancer activity of a drug. Cells were separated using 0.25% trypsin-EDTA solution, leading to the preparation of a cell suspension by 5×10^318 2×10^4 cells/well. Then, the suspension was distributed into a 96 well plate by 100 μl/well, which was cultured in a 37° C., 5% CO2 incubator for 24 hours. Compounds prepared in examples of the present invention were used as a sample. Precisely, the compound was dissolved in dimethylsulfoxide and diluted with RPMI 1640 medium before being used as a sample. The final concentration of the sample used varied ranging 1 μM˜0.00001 μM. The medium was removed from the 96 well plate and then diluted sample solution was added by 100 μl/well, followed by further culture in a 37° C., 5% CO2 incubator for 48 hours. Tz (time zero) plate was collected from the point of adding the sample. Upon completing the culture, the medium was removed from each well along with Tz plate, then 10% trichloroacetic acid (TCA) was added by 100 μl/well. The plate was left at 4° C. for 1 hour to let cells be fixed on the floor of the plate. After cells were fixed completely, the plate was washed with water 5-6 times to remove the remaining trichloroacetic acid solution completely and moisture was completely dried at room temperature. 0.4% Sulforhodamine-B was dissolved in 1% acetic acid solution to prepare a staining solution. Cells were stained for 30 minutes with a dye added by 100 μl to each well of the completely dried plate. Then, the plate was washed with 1% acetic acid solution 5-6 times to remove sulforhodamine-B remained uncombined with cells. Then, the plate was dried at room temperature. 10 mM Tris solution was added by 100 μ/well thereto to dissolve the dye, and optical density (OD) was measured at 520 nm with a micro plate reader.
(§5) ED50 (concentration that inhibits cancer cell growth 50%, 5.0% effective dose, nM/ml) of the sample to cancer cell was calculated as follows. OD value at the point of beginning the culture with the sample was determined as Tz (time zero) value. OD value of a well to be cultured without the sample was determined as a control value (C). OD value of a well pretreated with the sample was determined as experimental value (T). After calculating Tz, C and T, cytotoxicity of the sample was measured by the below <Mathematical Formula 1>. T≦Tz, (T−Tz)/(C−Tz)×100 T>Tz, (T−Tz)/Tz×10,0 <Mathematical Formula 1>
(§6) ED50, the concentration that can inhibit cancer cell growth by 50%, was calculated by using a regression analysis of lotus program based on the degree of cytotoxicity obtained by the <Mathematical Formula 1>.

[2] = in vivo; conditions: both, ICR, mouse, in vivo
Experimental: (§1) 5-week-old ICR mice having the weight of 25-35 g (SPF, SLC Co. Japan) were used as test animals. A pair of female and male of the mice was given for the test of each compound. Group T2, T3, T4 and T5 were arranged (10 animals per group) for the test of acute toxicity of the compound prepared in the Example 12. […] Control group (T1) was administered with only a solvent without the compound of the Example 12.
(§2) For comparison, colchicine was injected in the test animals by the same method as described in the above. The group treated with colchicine was composed of 6 mice.
(§3) Taxol produced by Bristol Myers Sqibb Co. was also used for comparison, and the injection and the test of acute toxicity were performed by the same method as described in the above.

[3] = tested on: ICR mice; assay: in vivo; conditions: for Death Total: ICR mice, 7 days, deaths/animals
Experimental: as §1, §2, §3

[4] = tested on: SK-MEL-2; assay: Cytotoxicity test to cancer cell lines (SRB method), SK-MEL-2; format: cell-based; conditions: Homo sapiens, SK-MEL-2, 48 h, read-out: Cytotoxicity ED50 SK-MEL-2
[5] = tested on: human lung cancer cell line NCI-H460; assay: Inhibiting effect on tumor growth, NCI-H460 xenografted nude mice
Experimental: Samples for the experiment were stored in a refrigerator all the time. […] The prepared sample is subject to be precipitated, so that tip sonication was performed right before the administration to disperse it well.
7 week-old female S.P.F. BALB/c nude mice, provided by Charles River Co., Japan, were used as test animals. The test animals were adapted in a Hepa-filter room over a week before the test. The temperature was 21±2° C., humidity was 55±5% and 12-hour light and dark cycle was automatically repeated in that lab. Solid feed (Cheiluedang) was sterilized by radioactive rays and drinking water was also sterilized by autoclave. Feed and water were taken by the animal freely. Cancer cell line used in this experiment was NCI-H460 (human lung tumor cell line) provided by Korea Research Institute of Bioscience and Biotechnology.
The tumor cell line, stored in liquid nitrogen, was thawed and cultured in a 37° C., 5% CO2 incubator for a required time. Upon completing the culture, all the cells were recovered and cell concentration of the culture fluid was adjusted using PBS to 3×10^7 cells/ml. The adjusted cell culture solution was injected hypodermically into armpit between right shoulder girdle and chest wall by 0.3 ml per mouse. From the next day of grafting, NCI-H460 xenografted nude mice were administered intraperitoneal everyday with the sample solution by 0.2 ml/20 g of weight, once a day.
After the grafting of tumor cells, the volume of a tumor in each individual was measured in three dimensions by using a vernier caliper, which was represented in the below <Mathematical Formula 2>. Tumor volume=(length×width×height)/2 <Mathematical Formula 2>
Body weight changes of animal were measured three times a week. Each xenografted nude mouse was sacrificed to separate a tumor, which was then weighed.

[6] = Body weight change of NCI-H460 xenografted nude mice; format: in vivo, BALB/c nude mouse
[7] = tested on: HCT-15; assay: Cytotoxicity test to cancer cell lines (SRB method), HCT-15; conditions: Homo sapiens, HCT-15, 48 h, read-out: Cytotoxicity ED50 HCT15
[8] = tested on: HUVEC cells; assay: Capillary-like tube formation assay; format: cell-based; conditions: HUVEC on matrigel, 24 hours
Experimental: Matrigel used in this experiment was a product of BioCoat. Matrigel was thawed in a refrigerator for 24 hours before use. Thawing matrigel, 96 well plate and yellow tip were put on ice. Then, matrigel was distributed into each well of the plate by 40 μl. The polymerization of the plate was performed in a 37° C. incubator for 30 minutes. Each well of the plate was inoculated with 180 μl of HUVEC cell solution (2×10^4 cells/m;) along with 20 μl of the compound of the Example 12 in serum-free media (0.3, 1,3, 10 and 30 μg/ml), followed by further culture for 24 hours.
Tube formation was observed under a microscope to investigate inhibition activity of angiogenesis.
Fumagilin and doxorubicin were used as a positive control.

[9] = tested on: SK-OV-3; assay: Cytotoxicity test to cancer cell lines (SRB method), SK-OV-3; format: cell-based; conditions: Homo sapiens, SK-OV-3, 48 h, read-out: Cytotoxicity ED50 SK-OV-3
[10] = tested on: A549; assay: Cytotoxicity test to cancer cell lines (SRB method), A549; conditions: Homo sapiens, A549, 48 h, read-out: Cytotoxicity ED50 A549
Experimental: as §4, §5, §6

[11] = 1 mg/kg intraperitoneal once a day
[12] = 3 mg/kg intraperitoneal once a day
[13] = 10 mg/kg intraperitoneal once a day

SMILES: COc1cc2c(c(OC)c1OC)-c1ccc(SC)c(=O)cc1[C@@H](NC(=O)c1cc(F)cc(CO[N+](=O)[O-])c1)CC2 [Example 12, 3-fluoro-5-nitrooxymethyl-N-[(7S)-1,2,3-trimethoxy-10-methylsulfanyl-9-oxo-5,6,7,9-tetrahydro-benzo[a]heptalen-7-yl]-benzamide]
- EC50 [1]: 0.03 nM
- LD50 [2]: 60 mg/kg
- Death Total ([3]; 30 mg/kg into the abdominal cavity): 0/10
- Death Total ([3]; 40 mg/kg into the abdominal cavity): 0/10
- Death Total ([3]; 50 mg/kg into the abdominal cavity): 0/10
- Death Total ([3]; 60 mg/kg into the abdominal cavity): 0/10
- times as weak toxicity as that of colchicine ([3]; ratio of LD50): 30 times
- EC50 [4]: 0.11 nM
- Tumor volume Day 0 [5, 11]: 0.0 ± 0.0
- Tumor volume Day 4 [5, 11]: 20.7 ± 3.1
- Tumor volume Day 7 [5, 11]: 49.2 ± 12.2
- Tumor volume Day 9 [5, 11]: 78.1 ± 13.0
- Tumor volume Day 11 [5, 11]: 146.5 ± 8.8
- Tumor Weight Day 14 [5, 11]: 950.9 ± 174.8 mg
- Tumor volume Day 14 [5, 11]: 299.3 ± 41.5
- Tumor volume Day 0 [5, 12]: 0.0 ± 0.0
- Tumor volume Day 4 [5, 12]: 16.9 ± 5.1
- Tumor volume Day 7 [5, 12]: 31.2 ± 11.7
- Tumor volume Day 9 [5, 12]: 49.7 ± 15.8
- Tumor volume Day 11 [5, 12]: 96.1 ± 26.1
- Tumor Weight Day 14 [5, 12]: 714.5 ± 103.8 mg
- Tumor volume Day 14 [5, 12]: 206.8 ± 48.0
- Tumor volume Day 0 [5, 13]: 0.0 ± 0.0
- Tumor volume Day 4 [5, 13]: 16.1 ± 6.7
- Tumor volume Day 7 [5, 13]: 24.6 ± 9.8
- Tumor volume Day 9 [5, 13]: 35.2 ± 12.9
- Tumor volume Day 11 [5, 13]: 69.4 ± 26.9
- Tumor Weight Day 14 [5, 13]: 390.9 ± 0 mg
- Tumor volume Day 14 [5, 13]: 103.0 ± 0
- size and weight of a tumor (in words) ([5]; comparing to solvent only (V.C-1, V.C-2) or positive control (taxol, adriamycin)): remarkably decreased
- Body weight Change Day 1 [6, 11]: 100.0 ± 0.0%
- Body weight Change Day 3 [6, 11]: 105.0 ± 1.4%
- Body weight Change Day 7 [6, 11]: 104.2 ± 5.3%
- Body weight Change Day 9 [6, 11]: 99.6 ± 4.4 %
- Body weight Change Day 11 [6, 11]: 97.5 ± 3.6 %
- Body weight Change Day 14 [6, 11]: 98.3 ± 3.2 %
- Body weight Change Day 1 [6, 12]: 100.0 ± 0.0%
- Body weight Change Day 3 [6, 12]: 102.8 ± 2.0%
- Body weight Change Day 7 [6, 12]: 101.8 ± 4.2 %
- Body weight Change Day 9 [6, 12]: 99.3 ± 3.3 %
- Body weight Change Day 11 [6, 12]: 99.1 ± 2.8 %
- Body weight Change Day 14 [6, 12]: 94.5 ± 3.9 %
- Body weight Change Day 1 [6, 13]: 100.0 ± 0.0%
- Body weight Change Day 3 [6, 13]: 103.9 ± 0.9%
- Body weight Change Day 7 [6, 13]: 92.2 ± 3.5 %
- Body weight Change Day 9 [6, 13]: 89.4 ± 2.0 %
- Body weight Change Day 11 [6, 13]: 92.3 ± 2.9 %
- Body weight Change Day 14 [6, 13]: 93.4 ± 0%
- decrease of the weight of the mouse ([6]; comparing to solvent only or positive control): about 10%
- EC50 [7]: 0.05 nM
- dosage that totally inhibited angiogenesis [8]: over 10 μg/ml
- dosage with angiogenesis inhibition activity ([8]; as good effect as fumagilin at 10 μg/ml): over 0.3 μg/ml
- EC50 [9]: 0.27 nM
- EC50 [10]: 0.05 nM
